Holding throughout (format): cell-based, human
Assay [1] has as its system MCF-7 cells. Put plainly: MTT anti-proliferative assay, MCF-7. The note with it: read-out: Anti-proliferative activity IC50, MCF-7.
Assay [2] has as its system HepG2 cells. The assay is described as follows: MTT anti-proliferative assay, HepG2. Particulars: read-out: Anti-proliferative activity IC50, HepG2.
Assay [3] deals with H1975 cells. The note with it: H1975, MTT; for IC50: read-out: Anti-proliferative activity IC50, H1975, 72 h.
Assay [4] concerns A549 cells. Put plainly: cells. Particulars: read-out: Anti-proliferative activity IC50, A549.

SMILES strings stand for the structures. Like-named read-outs stand apart in the source and are kept apart here.

As to `CN(C)c1ccc(/C=N/NC(=O)Nc2cc3c(Nc4ccc(F)c(Cl)c4)ncnc3cc2O[C@H]2CCOC2)cc1` [Compound 10, (S,E)-N-(4-((3-chloro-4-fluorophenyl)amino)-7-((tetrahydrofuran-3-yl)oxy)quinazolin-6-yl)-2-(4-(dimethylamino)benzylidene)hydrazine-1-carboxamide], the IC50 in assay [1] (Homo sapiens, MCF7, 72 h) stood at 0.61 ± 0.12 µM; in assay [2] (Homo sapiens, HepG2, 72 h), 0.14 ± 0.08 µM; in assay [4] (Homo sapiens, A549, 72 h), 1.51 ± 0.13 µM. Also, in assay [3], the “inhibitory activity against H1975 cells (in words)” value (from here on “inhibitory activity”) is on record as “moderate inhibitory activity”.
Taken in the same sequence, the figures for `CCN(CC)c1ccc(/C=N/NC(=O)Nc2cc3c(Nc4ccc(F)c(Cl)c4)ncnc3cc2O[C@H]2CCOC2)cc1` [Compound 12, (S,E)-N-(4-((3-chloro-4-fluorophenyl)amino)-7-((tetrahydrofuran-3-yl)oxy)quinazolin-6-yl)-2-(4-(diethylamino)benzylidene)hydrazine-1-carboxamide] were 0.35 ± 0.09 µM, 0.31 ± 0.13 µM, 0.28 ± 0.12 µM and “moderate inhibitory activity”.
On the same counts, the results for `O=C(N/N=C/c1ncc(N2CCOCC2)s1)Nc1cc2c(Nc3ccc(F)c(Cl)c3)ncnc2cc1O[C@H]1CCOC1` [Compound 13, (S,E)-N-(4-((3-chloro-4-fluorophenyl)amino)-7-((tetrahydrofuran-3-yl)oxy)quinazolin-6-yl)-2-((5-morpholinothiazol-2-yl)methylene)hydrazine-1-carboxamide] are 1.35 ± 0.14 µM, 1.35 ± 0.31 µM, 1.48 ± 0.19 µM and “moderate inhibitory activity”.
On the same counts, the results for `O=C(N/N=C/c1ccc(N2CCCC2)o1)Nc1cc2c(Nc3ccc(F)c(Cl)c3)ncnc2cc1O[C@H]1CCOC1` [Compound 15, (S,E)-N-(4-((3-chloro-4-fluorophenyl)amino)-7-((tetrahydrofuran-3-yl)oxy)quinazolin-6-yl)-2-((5-(pyrrolidin-1-yl)furan-2-yl)methylene)hydrazine-1-carboxamide] are 14 ± 0.78 µM, 8.17 ± 0.98 µM, 10.5 ± 0.77 µM and “poorer cellular activity”.
Turning to `CN(C)c1ccc(/C=N/NC(=O)Nc2cc3c(Nc4ccc(F)c(Cl)c4)ncnc3cc2O[C@H]2CCOC2)s1` [Compound 16, (S,E)-N-(4-((3-chloro-4-fluorophenyl)amino)-7-((tetrahydrofuran-3-yl)oxy)quinazolin-6-yl)-2-((5-(dimethylamino)thiophen-2-yl)methylene)hydrazine-1-carboxamide], the IC50 in assay [1] (Homo sapiens, MCF7, 72 h) was determined as 3.68 ± 0.49 µM; in assay [2] (Homo sapiens, HepG2, 72 h) it was 2.43 ± 0.45 µM; in assay [4] (Homo sapiens, A549, 72 h), 2.5 ± 0.36 µM. Also, the “inhibitory activity” value in assay [3] is recorded as “poorer cellular activity”.
Turning to `COc1cc2ncnc(Nc3ccc(F)c(Cl)c3)c2cc1NC(=O)N/N=C/c1ccc(N2CCCC2)nc1` [Compound 17, (E)-N-(4-((3-chloro-4-fluorophenyl)amino)-7-methoxyquinazolin-6-yl)-2-((6-(pyrrolidin-1-yl)pyridin-3-yl)methylene) hydrazine-1-carboxamide], the concentration for half-maximal inhibition (IC50) was 12.9 ± 1.12 µM in assay [1] (MCF-7, MTT, 72 h); 13.2 ± 1.31 µM in assay [2] (HepG2, MTT, 72 h); 35.3 ± 2.35 µM in assay [3]; 14.6 ± 1.21 µM in assay [4] (A549, MTT, 72 h).
On to `COc1cc2ncnc(Nc3ccc(F)c(Cl)c3)c2cc1NC(=O)N/N=C/c1ccc(CN(C)C)cc1` [Compound 19, (E)-N-(4-((3-chloro-4-fluorophenyl)amino)-7-methoxyquinazolin-6-yl)-2-(4-((dimethylamino)methyl)benzylidene)hydrazine-1-carboxamide], for which the half-maximal inhibitory concentration (IC50) in assay [1] (Homo sapiens, MCF7, 72 h) came to 3.8 ± 0.22 µM; in assay [2] (Homo sapiens, HepG2, 72 h), 9.89 ± 0.96 µM; in assay [4] (Homo sapiens, A549, 72 h), 7.99 ± 0.82 µM. For the same compound, the “inhibitory activity” value in assay [3] is given as “moderate inhibitory activity”.
On to `CCN(CC)Cc1ccc(/C=N/NC(=O)Nc2cc3c(Nc4ccc(F)c(Cl)c4)ncnc3cc2OC)cc1` [Compound 20, (E)-N-(4-((3-chloro-4-fluorophenyl)amino)-7-methoxyquinazolin-6-yl)-2-(4-((diethylamino)methyl)benzylidene)hydrazine-1-carboxamide], for which the IC50 in assay [1] (Homo sapiens, MCF7, 72 h) came out at 4.14 ± 0.57 µM; in assay [2] (Homo sapiens, HepG2, 72 h) it was 9.49 ± 0.47 µM; in assay [4] (Homo sapiens, A549, 72 h), 8.71 ± 0.54 µM. Further, the “inhibitory activity” value in assay [3] was “poorer cellular activity”.
Taken in the same sequence, the figures for `COc1cc2ncnc(Nc3ccc(F)c(Cl)c3)c2cc1NC(=O)N/N=C/c1ccc(CN2CCCC2)cc1` [Compound 21, (E)-N-(4-((3-chloro-4-fluorophenyl)amino)-7-methoxyquinazolin-6-yl)-2-(4-(pyrrolidin-1-ylmethyl)benzylidene)hydrazine-1-carboxamide] were 8.9 ± 0.48 µM, 21.3 ± 1.47 µM, 17.8 ± 1.22 µM and “moderate inhibitory activity”.
On the same counts, the results for `COc1cc2ncnc(Nc3ccc(F)c(Cl)c3)c2cc1NC(=O)N/N=C/c1ccc(CN2CCN(C)CC2)cc1` [Compound 24, (E)-N-(4-((3-chloro-4-fluorophenyl)amino)-7-methoxyquinazolin-6-yl)-2-(4-((4-methylpiperazin-1-yl)methyl)benzylidene)hydrazine-1-carboxamide] are 3.12 ± 0.38 µM, 2.86 ± 0.13 µM, 4.32 ± 0.61 µM and “moderate inhibitory activity”.
Taken in the same sequence, the figures for `CN(C)Cc1ccc(/C=N/NC(=O)Nc2cc3c(Nc4ccc(F)c(Cl)c4)ncnc3cc2O[C@H]2CCOC2)cc1` [Compound 25, (S,E)-N-(4-((3-chloro-4-fluorophenyl)amino)-7-((tetrahydrofuran-3-yl)oxy)quinazolin-6-yl)-2-(4-((dimethylamino)methyl)benzylidene)hydrazine-1-carboxamide] were 4.41 ± 0.28 µM, 3.76 ± 0.21 µM, 4.13 ± 0.54 µM and “poorer cellular activity”.
With `COc1cc2ncnc(Nc3ccc(F)c(Cl)c3)c2cc1NC(=O)N/N=C/c1ccc(OCCN(C)C)cc1` [Compound 31, (E)-N-(4-((3-chloro-4-fluoropheny)amino)-7-methoxyquinazolin-6-yl)-2-(4-(2-(dimethylamino)ethoxy)benzylidene)hydrazine-1-carboxamide], the IC50 was determined as 37.2 ± 2.89 µM in assay [1] (MCF-7, MTT, 72 h); 36.3 ± 2.57 µM in assay [2] (HepG2, MTT, 72 h); 45.3 ± 3.34 µM in assay [3]; 40.1 ± 4.03 µM in assay [4] (A549, MTT, 72 h).
Turning to `CCN(CC)CCOc1ccc(/C=N/NC(=O)Nc2cc3c(Nc4ccc(F)c(Cl)c4)ncnc3cc2OC)cc1` [Compound 32, (E)-N-(4-((3-chloro-4-fluoropheny)amino)-7-methoxyquinazolin-6-yl)-2-(4-(2-(diethylamino)ethoxy)benzylidene)hydrazine-1-carboxamide], the IC50 in assay [1] (MCF-7, MTT, 72 h) worked out at 12.5 ± 1.24 µM; in assay [2] (HepG2, MTT, 72 h), 13.2 ± 1.03 µM; in assay [3] it was 32.6 ± 3.45 µM; in assay [4] (A549, MTT, 72 h), 8.62 ± 1.13 µM. For the same compound, the “inhibitory activity” value in assay [3] was “poorer cellular activity”.
Consider `COc1cc2ncnc(Nc3ccc(F)c(Cl)c3)c2cc1NC(=O)N/N=C/c1ccc(OCCN2CCCCC2)cc1` [Compound 34, (E)-N-(4-((3-chloro-4-fluoropheny)amino)-7-methoxyquinazolin-6-yl)-2-(4-(2-(piperidin-1-yl)ethoxy)benzylidene)hydrazine-1-carboxamide], for which the IC50 in assay [1] (MCF-7, MTT, 72 h) was determined as 9.21 ± 1.16 µM; in assay [2] (HepG2, MTT, 72 h) it was 12.7 ± 1.25 µM; in assay [3], 61.6 ± 5.67 µM; in assay [4] (A549, MTT, 72 h) it was 10.8 ± 1.43 µM. The “inhibitory activity” value in assay [3] is “poorer cellular activity”.

Source of the values: PMC6282443 (Journal of Enzyme Inhibition and Medicinal Chemistry, 2018).
